Source: patent US20260201008A1, “SECRETIN-DERIVED GLP1R SELECTIVE AGONISTS” (GUBRA A/S, priority 2023, published 2026)
Numbered stars: 1 amine (or outer) side, 2 acyl side, 3 side chain; on linkers, the order of the positions; unused ones are H or OH. Square brackets hold non-standard residues; d marks the D form. Side chains are listed from the residue outwards. Peptide text beside a SMILES is read from it. * marks the point of attachment. C20 diacid = O=C(O)CCCCCCCCCCCCCCCCCCC(=O)*; γGlu = O=C(O)[C@H](CCC(=O)[*:2])N[*:1]; AEEA = NCCOCCOCC(=O)O; Aib = CC(C)(N)C(=O)O

Legend:
SCTR = SCTR (Homo sapiens, UniProt P47872); test: hSCTR potency, cAMP accumulation in CHO-K1 cells stably overexpressing hSCTR; assay type: cell-based; set-up: alternatively Euroscreen ES-712-AF; FAST-0161L; host or cells: CHO-K1; conditions: cAMP accumulation, CHO-K1 cells overexpressing hSCTR; read-out: pEC50 hSCTR (converted)
How it was run: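 In this Gs cAMP assay, stably transfected CHO-K1 hSCTR cells were stimulated at room temperature for 30 min in IBMX-containing buffer. Time-resolved FRET gave the signal. Replicates were increased when the top concentration changed or EC50 values differed 5-fold.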

[1] = Turbidity of crude library peptides (absorbance at 600 nm); assay type: physicochemical; conditions: Physical stability of peptides
How it was run: (§1)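 Fibril formation is scored as average ThT fluorescence from duplicate samples monitored for 72 h at 40° C with shaking stress. Turbidity is the absorbance at 600 nm taken before heating. Peptide concentration was 267 μM at pH 4.0 or pH 7.0.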

[2] = Fibril formation of crude library peptides (Thioflavin T); assay type: physicochemical; set-up: key: average ThT fluorescence emission at 480 nm (ex 450 nm), raw units; conditions: Physical stability of peptides
How it was run: as §1

GLP1R = GLP1R (Homo sapiens, UniProt P43220); test: hGLP1R potency, cAMP accumulation in CHO-K1 cells stably overexpressing hGLP1R; assay type: cell-based; set-up: host or cells: CHO-K1; conditions: for Selectivity: SCTR EC50/GLP1R EC50 ratio; for EC50: cAMP accumulation, CHO-K1 cells overexpressing hGLP1R, read-out: pEC50 hGLPR1 (converted)
How it was run: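 In the presence of 0.5 mM IBMX, compounds stimulated the cells for 30 minutes at room temperature. Accumulated cAMP was then detected by TR-FRET, with EC50 values fitted by variable-slope nonlinear regression.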

Chain of SCTR (P47872 23-440): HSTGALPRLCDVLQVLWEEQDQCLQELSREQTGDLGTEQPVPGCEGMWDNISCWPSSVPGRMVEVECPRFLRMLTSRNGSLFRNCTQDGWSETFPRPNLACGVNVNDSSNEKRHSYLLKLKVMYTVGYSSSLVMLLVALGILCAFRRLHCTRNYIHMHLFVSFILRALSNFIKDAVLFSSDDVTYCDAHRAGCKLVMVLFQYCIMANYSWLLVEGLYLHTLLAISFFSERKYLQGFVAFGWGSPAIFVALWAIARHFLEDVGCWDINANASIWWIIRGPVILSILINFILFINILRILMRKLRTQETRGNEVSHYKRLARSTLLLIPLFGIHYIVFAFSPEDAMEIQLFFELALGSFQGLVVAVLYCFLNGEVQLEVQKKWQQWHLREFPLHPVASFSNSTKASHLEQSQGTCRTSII
Chain of GLP1R (P43220 24-463): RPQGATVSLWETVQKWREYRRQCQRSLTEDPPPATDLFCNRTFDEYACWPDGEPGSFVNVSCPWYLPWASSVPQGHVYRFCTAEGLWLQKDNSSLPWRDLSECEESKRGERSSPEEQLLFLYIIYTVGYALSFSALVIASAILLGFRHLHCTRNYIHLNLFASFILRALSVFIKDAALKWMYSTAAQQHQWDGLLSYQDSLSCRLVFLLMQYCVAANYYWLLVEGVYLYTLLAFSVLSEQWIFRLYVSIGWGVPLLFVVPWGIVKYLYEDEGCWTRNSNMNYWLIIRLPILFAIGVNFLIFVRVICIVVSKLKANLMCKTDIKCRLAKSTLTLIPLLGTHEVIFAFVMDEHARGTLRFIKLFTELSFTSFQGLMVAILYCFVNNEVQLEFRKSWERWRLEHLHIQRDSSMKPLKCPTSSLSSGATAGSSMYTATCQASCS

| SMILES | EC50 (SCTR) [nM] | Turbidity (pH 7) [1] | Fibril formation [2] | Selectivity (GLP1R) | EC50 (GLP1R) [nM] |
| --- | --- | --- | --- | --- | --- |
| CC(C)C[C@H](NC(=O)[C@H](Cc1ccccc1)NC(=O)[C@H](CCCNC(=N)N)NC(=O)[C@H](CCC(N)=O)NC(=O)[C@H](CO)NC(=O)[C@H](C)NC(=O)[C@H](C)NC(=O)[C@H](CCC(=O)O)NC(=O)[C@H](CCC(=O)O)NC(=O)[C@H](CCCCNC(=O)COCCOCCNC(=O)COCCOCCNC(=O)CC[C@H](NC(=O)CCCCCCCCCCCCCCCCCCC(=O)O)C(=O)O)NC(=O)[C@H](CC(C)C)NC(=O)[C@H](Cc1ccc(O)cc1)NC(=O)[C@H](CO)NC(=O)[C@@H](NC(=O)[C@H](CC(=O)O)NC(=O)[C@H](CO)NC(=O)[C@@H](NC(=O)[C@H](Cc1ccccc1)NC(=O)[C@@H](NC(=O)CNC(=O)[C@H](CCC(=O)O)NC(=O)C(C)(C)NC(=O)[C@@H](N)Cc1c[nH]cn1)[C@@H](C)O)[C@@H](C)O)C(C)C)C(=O)N[C@@H](CCC(=O)O)C(=O)N[C@@H](Cc1c[nH]cn1)C(=O)N[C@@H](CC(C)C)C(=O)N[C@H](C(N)=O)C(C)C [compound 75] (H-H[Aib]EGTFTSDVSYLK([AEEA-AEEA-γGlu-C20 diacid])EEAASQRFLEHLV-NH2) | 3160 | 0.08 | 9457 | 133506 | 0.0251 |
| CC(C)C[C@H](NC(=O)[C@H](Cc1ccccc1)NC(=O)[C@H](CCCNC(=N)N)NC(=O)[C@H](CCC(N)=O)NC(=O)[C@H](CCC(N)=O)NC(=O)[C@H](C)NC(=O)[C@H](C)NC(=O)[C@H](Cc1ccccc1)NC(=O)[C@H](CCC(=O)O)NC(=O)[C@H](CCCCNC(=O)COCCOCCNC(=O)COCCOCCNC(=O)CC[C@H](NC(=O)CCCCCCCCCCCCCCCCCCC(=O)O)C(=O)O)NC(=O)[C@H](CC(C)C)NC(=O)[C@H](Cc1ccc(O)cc1)NC(=O)[C@H](CO)NC(=O)[C@@H](NC(=O)[C@H](CC(=O)O)NC(=O)[C@H](CO)NC(=O)[C@@H](NC(=O)[C@H](Cc1ccccc1)NC(=O)[C@@H](NC(=O)CNC(=O)[C@H](CCC(=O)O)NC(=O)C(C)(C)NC(=O)[C@@H](N)Cc1c[nH]cn1)[C@@H](C)O)[C@@H](C)O)C(C)C)C(=O)N[C@@H](CCC(=O)O)C(=O)N[C@@H](Cc1c[nH]cn1)C(=O)N[C@@H](CC(C)C)C(=O)N[C@H](C(N)=O)C(C)C [compound 76] (H-H[Aib]EGTFTSDVSYLK([AEEA-AEEA-γGlu-C20 diacid])EFAAQQRFLEHLV-NH2) | 10000 | 0.08 | 20479 | 122180 | 0.0794 |
| CC(C)C[C@H](NC(=O)[C@H](CCC(=O)O)NC(=O)[C@H](CCCCNC(=O)COCCOCCNC(=O)COCCOCCNC(=O)CC[C@H](NC(=O)CCCCCCCCCCCCCCCCCCC(=O)O)C(=O)O)NC(=O)[C@H](CC(C)C)NC(=O)[C@@H](NC(=O)[C@H](CO)NC(=O)[C@@H](NC(=O)[C@H](CC(=O)O)NC(=O)[C@H](CO)NC(=O)[C@@H](NC(=O)[C@H](Cc1ccccc1)NC(=O)[C@@H](NC(=O)CNC(=O)[C@H](CCC(=O)O)NC(=O)C(C)(C)NC(=O)[C@@H](N)Cc1c[nH]cn1)[C@@H](C)O)[C@@H](C)O)C(C)C)[C@@H](C)O)C(=O)N[C@@H](C)C(=O)N[C@@H](C)C(=O)NC(C)(C)C(=O)N[C@@H](CCC(N)=O)C(=O)N[C@@H](CCCNC(=N)N)C(=O)N[C@@H](Cc1ccccc1)C(=O)N[C@@H](CC(C)C)C(=O)N[C@@H](CCC(=O)O)C(=O)N[C@@H](Cc1c[nH]cn1)C(=O)N[C@@H](CC(C)C)C(=O)N[C@H](C(N)=O)C(C)C [compound 79] (H-H[Aib]EGTFTSDVSTLK([AEEA-AEEA-γGlu-C20 diacid])ELAA[Aib]QRFLEHLV-NH2) | 3160 | 0.08 | 12190 | 30234 | 0.1 |

Other lines, results leading:

| EC50 (SCTR) [nM] | Turbidity (pH 7) [1] | Fibril formation [2] | Selectivity (GLP1R) | EC50 (GLP1R) [nM] | SMILES |
| --- | --- | --- | --- | --- | --- |
| 1580 | 0.08 | 11936 | 74783 | 0.02 | CC(C)C[C@H](NC(=O)[C@H](Cc1ccccc1)NC(=O)[C@H](CCCNC(=N)N)NC(=O)[C@H](CCC(N)=O)NC(=O)C(C)(C)NC(=O)[C@H](C)NC(=O)[C@H](C)NC(=O)[C@H](CCC(=O)O)NC(=O)[C@H](CCC(=O)O)NC(=O)[C@H](CCCCNC(=O)COCCOCCNC(=O)COCCOCCNC(=O)CC[C@H](NC(=O)CCCCCCCCCCCCCCCCCCC(=O)O)C(=O)O)NC(=O)[C@H](CC(C)C)NC(=O)[C@@H](NC(=O)[C@H](CO)NC(=O)[C@@H](NC(=O)[C@H](CC(=O)O)NC(=O)[C@H](CO)NC(=O)[C@@H](NC(=O)[C@H](Cc1ccccc1)NC(=O)[C@@H](NC(=O)CNC(=O)[C@H](CCC(=O)O)NC(=O)C(C)(C)NC(=O)[C@@H](N)Cc1c[nH]cn1)[C@@H](C)O)[C@@H](C)O)C(C)C)[C@@H](C)O)C(=O)N[C@@H](CCC(=O)O)C(=O)N[C@@H](Cc1c[nH]cn1)C(=O)N[C@@H](CC(C)C)C(=O)N[C@H](C(N)=O)C(C)C [compound 77] (H-H[Aib]EGTFTSDVSTLK([AEEA-AEEA-γGlu-C20 diacid])EEAA[Aib]QRFLEHLV-NH2) |
| 3980 | 0.08 | 8551 | 72127 | 0.0501 | CC(C)C[C@H](NC(=O)[C@H](CCC(=O)O)NC(=O)[C@H](CCCCNC(=O)COCCOCCNC(=O)COCCOCCNC(=O)CC[C@H](NC(=O)CCCCCCCCCCCCCCCCCCC(=O)O)C(=O)O)NC(=O)[C@H](CC(C)C)NC(=O)[C@@H](NC(=O)[C@H](CO)NC(=O)[C@@H](NC(=O)[C@H](CC(=O)O)NC(=O)[C@H](CO)NC(=O)[C@@H](NC(=O)[C@H](Cc1ccccc1)NC(=O)[C@@H](NC(=O)CNC(=O)[C@H](CCC(=O)O)NC(=O)C(C)(C)NC(=O)[C@@H](N)Cc1c[nH]cn1)[C@@H](C)O)[C@@H](C)O)C(C)C)[C@@H](C)O)C(=O)N[C@@H](C)C(=O)N[C@@H](C)C(=O)N[C@@H](CCC(=O)O)C(=O)N[C@@H](CCC(N)=O)C(=O)N[C@@H](CCCNC(=N)N)C(=O)N[C@@H](Cc1ccccc1)C(=O)N[C@@H](CC(C)C)C(=O)N[C@@H](CCC(=O)O)C(=O)N[C@@H](Cc1c[nH]cn1)C(=O)N[C@@H](CC(C)C)C(=O)N[C@H](C(N)=O)C(C)C [compound 78] (H-H[Aib]EGTFTSDVSTLK([AEEA-AEEA-γGlu-C20 diacid])ELAAEQRFLEHLV-NH2) |
| 794 | 0.08 | 6999 | 33512 | 0.02 | CC(C)C[C@H](NC(=O)[C@H](CCC(=O)O)NC(=O)[C@H](CCCCNC(=O)COCCOCCNC(=O)COCCOCCNC(=O)CC[C@H](NC(=O)CCCCCCCCCCCCCCCCCCC(=O)O)C(=O)O)NC(=O)[C@H](CC(C)C)NC(=O)[C@H](CCC(=O)O)NC(=O)[C@H](CO)NC(=O)[C@@H](NC(=O)[C@H](CC(=O)O)NC(=O)[C@H](CO)NC(=O)[C@@H](NC(=O)[C@H](Cc1ccccc1)NC(=O)[C@@H](NC(=O)CNC(=O)[C@H](CCC(=O)O)NC(=O)C(C)(C)NC(=O)[C@@H](N)Cc1c[nH]cn1)[C@@H](C)O)[C@@H](C)O)C(C)C)C(=O)N[C@@H](C)C(=O)N[C@@H](C)C(=O)N[C@H](C(=O)N[C@@H](CCC(N)=O)C(=O)N[C@@H](CCCNC(=N)N)C(=O)N[C@@H](Cc1ccccc1)C(=O)N[C@@H](CC(C)C)C(=O)N[C@@H](CCC(=O)O)C(=O)N[C@@H](Cc1c[nH]cn1)C(=O)N[C@@H](CC(C)C)C(=O)N[C@H](C(N)=O)C(C)C)[C@@H](C)O [compound 80] (H-H[Aib]EGTFTSDVSELK([AEEA-AEEA-γGlu-C20 diacid])ELAATQRFLEHLV-NH2) |
